24 compounds from patent publication US20120121540A1 (priority 2007, published 2012) can be followed below.

SMILES strings stand for the structures.

The assay is described as follows: HCV replicon assay (luciferase reporter, ET cell line). The settings on record: Hepatitis C virus, HCV replicon luciferase activity in ET cells. The format is cell-based. An outline of the steps:
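EC50 and, via WST-1 cytotoxicity, TC50 were fitted with a Hill-coefficient equation to % inhibition across 10 two-fold dilutions. Compounds at 0.1 nM-[…] with 0.5% DMSO were applied 24 h post-seeding to replicon-bearing ET cells (luc-ubi-neo/NS3-5B, adaptive mutations). Firefly luciferase signal was measured after 48-72 h.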
The compound `O=C(c1nc2c(C(F)(F)F)cc(-c3ccoc3)cn2c1Cl)N1CC=C(c2cncnc2)CC1` [Compound 618, [3-chloro-6-(furan-3-yl)-8-(trifluoromethyl)imidazo[1,2-a]pyridin-2-yl][4-(pyrimidin-5-yl)-3,6-dihydropyridin-1(2H)-yl]methanone] returned an inhibition at 10 µM of 95.9%. For `O=C(NCc1ccc(F)cc1)c1nc2c(C(F)(F)F)cc(-c3ccoc3)cn2c1Cl` [Compound 404] the value was 83.9%. `O=C(c1nc2c(C(F)(F)F)cc(-c3ccoc3)cn2c1Cl)N1CC=C(c2cnoc2)CC1` [Compound 582, (3-Chloro-6-furan-3-yl-8-trifluoromethyl-imidazo[1,2-a]pyridin-2-yl)-(4-isoxazol-4-yl-3,6-dihydro-2H-pyridin-1-yl)-methanone]: the inhibition at 10 µM was found to be 91.2%.

Compound `O=C(c1nc2c(C(F)(F)F)cc(-c3ccoc3)cn2c1Cl)N1CCN(c2ccc(F)cc2)CC1` [Compound 530, (3-Chloro-6-furan-3-yl-8-trifluoromethyl-imidazo[1,2-a]pyridine-2-yl)-[4-(4-fluoro-phenyl)-piperazin-1-yl]-methanone] came in with an inhibition at 10 µM of 80.3%. Compound `O=C(c1nc2c(C(F)(F)F)cc(-c3ccoc3)cn2c1Cl)N1CCC(c2ccccc2Cl)C1` (stereo not drawn) [Compound 341, (3-Chloro-6-furan-3-yl-8-trifluoromethyl-imidazo[1,2-a]pyridin-2-yl)-[3-(2-chloro-phenyl)-pyrrolidin-1-yl]-methanone] came in with an inhibition at 10 µM of 83.6%. For `O=C(c1nc2c(C(F)(F)F)cc(-c3ccoc3)cn2c1Cl)N1CC=C(c2cccs2)CC1` [Compound 613, (3-Chloro-6-furan-3-yl-8-trifluoromethyl-imidazo[1,2-a]pyridin-2-yl)-(4-thiophen-2-yl-3,6-dihydro-2H-pyridin-1-yl)-methanone] the value was 99.4%; for `CN(C)c1cccc(-c2cc(C(F)(F)F)c3nc(C(=O)NCc4cccs4)c(Cl)n3c2)c1` [Compound 286, 3-Chloro-6-(3-dimethylamino-phenyl)-8-trifluoromethyl-imidazo[1,2-a]pyridine-2-carboxylic Acid (thiophen-2-ylmethyl)-amide], 57.9%. The compound `O=C(NCc1ccccc1)c1cc2cc(-c3ccccc3)cc(I)n2n1` [Compound 129, 7-Iodo-5-phenyl-pyrazolo[1,5-a]pyridine-2-carboxylic Acid benzylamide] yielded an inhibition at 10 µM of 43%.

As to `O=C(c1cn2cc(-c3ccoc3)cc(C(F)(F)F)c2n1)N1CCC(c2cccc(F)c2)C1` (stereo not drawn) [Compound 638, [3-(3-Fluoro-phenyl)-pyrrolidin-1-yl]-(6-furan-3-yl-8-trifluoromethyl-imidazo[1,2-a]pyridin-2-yl)-methanone], 10 µM produced 98.5% inhibition. `C#Cc1ccccc1C1=CCN(C(=O)c2nc3c(C(F)(F)F)cc(-c4ccoc4)cn3c2Cl)CC1` [Compound 567, (3-Chloro-6-furan-3-yl-8-trifluoromethyl-imidazo[1,2-a]pyridin-2-yl)-[4-(2-ethynyl-phenyl)-3,6-dihydro-2H-pyridin-1-yl)-methanone] displayed an inhibition at 10 µM of 81.3%. The same measure for `CCn1c(C(=O)N2CCC(c3ccc(F)cc3)C2)nc2cc(-c3ccoc3)cc(C(F)(F)F)c21` (stereo not drawn) [Compound 353, (1-Ethyl-5-furan-3-yl-7-trifluoromethyl-1H-benzoimidazol-2-yl)-[3-(4-fluoro-phenyl)-pyrrolidin-1-yl]-methanone]: 3.5%. Take `O=C(NCc1cccs1)c1nc2c(-c3ccoc3)cc(-c3ccccc3)cn2c1Cl` [Compound 263]: 10 µM produced 60.3% inhibition.

In the case of `O=C(c1nc2c(C(F)(F)F)cc(-c3ccoc3)cn2c1Cl)N1C2C=C(c3cscn3)CC1CC2` (stereo not drawn) [Compound 634, [3-chloro-6-(furan-3-yl)-8-(trifluoromethyl)imidazo[1,2-a]pyridin-2-yl][3-(1,3-thiazol-4-yl)-8-azabicyclo[3.2.1]oct-2-en-8-yl]methanone], 10 µM produced 86.4% inhibition. The same measure for `O=C(NCc1cccs1)c1nc2c(C(F)(F)F)cc(-c3cccc(F)c3)cn2c1C1=CCCCC1` [Compound 303, 3-Cyclohex-1-enyl-6-(3-fluoro-phenyl)-8-trifluoromethyl-imidazo[1,2-a]pyridine-2-carboxylic Acid (thiophen-2-ylmethyl)-amide]: 39.7%; for `O=C(NCc1cccs1)c1nc2c(C(F)(F)F)cc(-c3cccc(F)c3)cn2c1Cl` [Compound 196, 3-Chloro-6-(3-fluoro-phenyl)-8-trifluoromethyl-imidazo[1,2-a]pyridine-2-carboxylic acid (thiophen-2-ylmethyl)-amide]: 94%.

`O=C(c1nc2c(C(F)(F)F)cc(-c3ccoc3)cn2c1Cl)N1CCC(c2cccc(F)c2)CC1` [Compound 276, (3-Chloro-6-furan-3-yl-8-trifluoromethyl-imidazo[1,2-a]pyridine-2-yl)-[4-(3-fluoro-phenyl)-piperidin-1-yl]-methanone] registered an inhibition at 10 µM of 74%. For `O=C(NCc1cccs1)c1nc2c(C(F)(F)F)cc(-c3ccc(C(F)(F)F)cc3)cn2c1Cl` [Compound 199, 3-Chloro-8-trifluoromethyl-6-(4-trifluoromethyl-phenyl)-imidazo[1,2-a]pyridine-2-carboxylic acid (thiophen-2-ylmethyl)-amide] the value was 41%; for `O=C(c1nc2c(C(F)(F)F)cc(-c3ccoc3)cn2c1Cl)N1CC(c2ccc(C(F)(F)F)cc2)C1` [Compound 488], 60.2%; for `O=C(NCc1cccs1)c1nc2c(C(F)(F)F)cc(-c3cn[nH]n3)cn2c1Cl` [Compound 308, 3-Chloro-6-(2H-[1,2,3]triazol-4-yl)-8-trifluoromethyl-imidazo[1,2-a]pyridine-2-carboxylic Acid (thiophen-2-ylmethyl)-amide], 88.2%. For `COC(=O)c1cccc(C2CCN(C(=O)c3nc4c(C(F)(F)F)cc(-c5ccoc5)cn4c3Cl)C2)c1` (stereo not drawn) [Compound 452, 3-(1-(3-Chloro-6-furan-3-yl-8-trifluoromethyl-imidazo[1,2-a]pyridine-2-carbonyl)-pyrrolidin-3-yl)-benzoic acid methyl ester] the value was 87.6%.

Regarding `Cc1cscc1-c1cc(C(F)(F)F)c2nc(C(=O)NCc3cccs3)c(Cl)n2c1` [Compound 209, 3-Chloro-6-(4-methyl-thiophen-3-yl)-8-trifluoromethyl-imidazo[1,2-a]pyridine-2-carboxylic acid (thiophen-2-ylmethyl)-amide], 10 µM produced 83.4% inhibition. As to `O=C(NCc1ccccc1)NCc1cn2cc(-c3ccoc3)cc(C(F)(F)F)c2n1` [Compound 391, 1-Benzyl-3-(6-furan-3-yl-8-trifluoromethyl-imidazo[1,2-a]pyridin-2-ylmethyl)-urea], the inhibition at 10 µM was determined as 99.9%. For `O=C(c1nc2c(C(F)(F)F)cc(-c3ccco3)cn2c1Cl)N1CCC(c2ccccc2)C1` (stereo not drawn) [Compound 186, (3-Chloro-6-furan-2-yl-8-trifluoromethyl-imidazo[1,2-a]pyridin-2-yl)-(3-phenyl-pyrrolidin-1-yl)-methanone] the value was 96%.

Regarding `O=C(c1nc2c(C(F)(F)F)cc(-c3ccoc3)cn2c1Cl)N1CC=C(c2ccsc2)C1` [Compound 425, (3-Chloro-6-furan-3-yl-8-trifluoromethyl-imidazo[1,2-a]pyridin-2-yl)-(3-thiophen-3-yl-2,5-dihydro-pyrrol-1-yl)-methanone], 10 µM produced 99.3% inhibition.
